The text below walks through data of US20130165446A1 (priority 2010, published 2013).

Molecules are shown by their SMILES.

The test addresses T1, human recombinant (CHO cell) AT1 receptor (Homo sapiens, UniProt P30556).
T1 construct: expressed in transfected cells; host or cells: CHO cells
T1 sequence (P30556 1-359): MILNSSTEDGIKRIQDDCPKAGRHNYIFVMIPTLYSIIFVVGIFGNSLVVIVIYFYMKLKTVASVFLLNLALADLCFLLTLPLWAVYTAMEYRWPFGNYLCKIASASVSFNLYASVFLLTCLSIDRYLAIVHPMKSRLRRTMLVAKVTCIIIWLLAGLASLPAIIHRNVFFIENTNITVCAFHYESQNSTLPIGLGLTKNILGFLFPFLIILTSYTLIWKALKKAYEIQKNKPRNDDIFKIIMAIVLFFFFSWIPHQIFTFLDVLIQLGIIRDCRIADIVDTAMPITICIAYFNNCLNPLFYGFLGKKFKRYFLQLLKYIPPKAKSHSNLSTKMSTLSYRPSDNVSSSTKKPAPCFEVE
The test can be described thus: Angiotensin II inhibition test (radioligand binding to AT1 receptor). The settings on record: test compound concentration 10^−9 M, radioactive iodine-labeled angiotensin II, 37° C., sixty minutes; for inhibition at 0.001 µM: read-out: Inhibition rate (%). As to the method: A test of inhibition of angiotensin II to human recombinant (CHO cell) AT1 receptor following a method described in the literature (for example, Regul. Pept., vol. 44 (2), page 131 (1993)) was used to measure inhibitory activity to a test compound.
The ligand used was 10^−9 M of a test compound dissolved in 1% DMSO (dimethylsulfoxide). This was reacted with radioactive iodine-labeled angiotensin II at 37° C. for sixty minutes. Taking the inhibition rate of angiotensin II at 10 μM as nonspecific binding, the specific binding rate was calculated by subtracting this nonspecific portion. Table 6 indicates the results (the inhibition rate at test compound concentration: 10^−9 M)

For `CCCc1nc2c(C)cc(COc3ccc4nc(COc5ccc(CC6SC(=O)NC6=O)cc5)n(C)c4c3)cc2n1Cc1ccc(-c2ccccc2-c2nnn[nH]2)cc1` (centres unmarked) [Example 1, 5-(4-{6-[4-methyl-2-propyl-1-[2′-(1H-tetrazol-5-yl)biphenyl-4-ylmethyl]-1H-benzimidazol-6-ylmethoxy]-1-methyl-1H-benzimidazol-2-ylmethoxy}benzyl)thiazolidine-2,4-dione], the inhibition at 0.001 µM worked out at 51%.
Regarding `CCCc1nc2c(C)cc(-c3nc4ccc(N(C)CCOc5ccc6nc(COc7ccc(CC8SC(=O)NC8=O)cc7)n(C)c6c5)cc4n3C)cc2n1Cc1ccc(-c2ccccc2-c2nnn[nH]2)cc1` (centres unmarked) [Example 3, 5-[4-[6-{2-(N-(1-methyl-2-[4-methyl-2-propyl-1-(2′-(1H-tetrazol-5-yl)biphenyl-4-ylmethyl)-1H-benzimidazol-6-yl]-1H-benzamidazol-6-yl)-N-methylamino)ethoxy}-1-methyl-1H-benzimidazol-2-ylmethoxy]benzyl]thiazolidine-2,4-dione], the “Inhibition rate (%)” value is 60%.
In the case of `CCCc1nc(CSCCOc2ccc3nc(COc4ccc(CC5SC(=O)NC5=O)cc4)n(C)c3c2)c(C(=O)OCC)n1Cc1ccc(-c2ccccc2-c2nnn[nH]2)cc1` (centres unmarked) [Example 15, 4-[2-[1-methyl-2-{4-(2,4-dioxothiazolidin-5-ylmethyl)phenoxymethyl}-1H-benzimidazol-6-yloxy]ethylthiomethyl]-2-propyl-1-[2′-(1H-tetrazol-5-yl)biphenyl-4-ylmethyl]-1H-imidazole-5-carboxylic acid ethyl ester], the inhibition at 0.001 µM was found to be 47%.
Still for that read-out and setting: as for `CCCc1nc2c(C)cc(-c3nc4ccc(N(C)CCOc5ccc(CC6SC(=O)NC6=O)cc5)cc4n3C)cc2n1Cc1ccc(-c2ccccc2C(=O)O)cc1` (centres unmarked) [Example 22, 4′-[6-{6-(N-2-[4-(2,4-dioxothiazolidin-5-ylmethyl)phenoxy]ethyl-N-methylamino)-1-methyl-1H-benzimidazol-2-yl}-4-methyl-2-propyl-1H-benzimidazol-1-ylmethyl]biphenyl-2-carboxylic acid], the figure is 60%; as for `CCCc1nc(CSCCSc2ccc(Oc3ccc4nc(COc5ccc(CC6SC(=O)NC6=O)cc5)n(C)c4c3)cc2)c(C(=O)OCC)n1Cc1ccc(-c2ccccc2-c2nnn[nH]2)cc1` (centres unmarked) [Example 14, 4-[2-[4-{1-methyl-2-(4-(2,4-dioxothiazolidin-5-ylmethyl)phenoxymethyl)-1H-benzimidazol-6-yloxy}phenylthio]ethylthiomethyl]-2-propyl-1-[2′-(1H-tetrazol-5-yl)biphenyl-4-ylmethyl]-1H-imidazole-5-carboxylic acid ethyl ester], 38%.

The term inhibition denotes the drop in the measured response relative to a control, in per cent.
